Series [1] deals with T1, PARP-1 (Homo sapiens, UniProt P09874).
T1 construct: purchased BPS Bioscience 80580
Kind of series: colorimetric 96-well PARP-1 assay kit (BPS Bioscience). It is filed as biochemical. The settings on record: for IC50: read-out: IC50 (mean ± SEM) PARP-1.

Series [2] has as its system MDA-MB-436. In words: in vitro cytotoxicity, MTT assay, MDA-MB-436. The settings on record: for % viability MDA-MB-436: MTT lab report; for IC50: read-out: IC50 (mean ± SEM) MDA-MB-436; for SI: MDA-MB-436, matches IC50 WI-38 / IC50 MDA-MB-436. On the technique in general: Tetrazolium assays rely on reduction of a dye to a coloured formazan, in cell work by metabolically active cells.

For series [3], the system named is WI-38. Kind of series: cytotoxicity against normal cells, MTT assay, WI-38. The format is cell-based. Conditions: Homo sapiens, normal cell line, read-out: IC50 (mean ± SEM) WI-38. Here is the method:
It has been reported that the frequency and severity of the side effects on normal healthy cells at therapeutic levels are deemed to be critical factors that distinguish different anticancer drugs from each other. […]
to the wells designated as “Blank”. The amount of PARP-1 required for the assay was then calculated. The reaction was initiated by adding 20 µL of diluted PARP-1 en zy me to the wells designated “Positive Control” and “Test Inhibitor Control”. The strip wells were incubated at room temperature for 1 hou r. The strip wells were then wash ed three times with 200 µL of PBST buffer.
Then, 50 µL of 50 times diluted Streptavidin-HRP with blocking buffer was added to each well, and the strips were further incubated at room temperature for 30 min. After washing the wells three times with 200 µL of PBST buffer, HRP colorimetric substrate was added to each well, and the plate was incubated at room temperature until a blue color was developed in the positive control well. Then, the reaction was quenched with 100 µL per well of 2 M sulfuric acid. Carrier solvent (DMSO 5%, v/v) was used as a negative control. All compounds including Ol ap arib were t ested at 5 concentrations (100, 10, 1, 0.1, and 0.01 µM). The optical density (OD) of each well was measured spectrophotometrically at 450 nm with an ELISA microplate reader (ChroMate-4300, FL, USA). The IC50 values were calculated according to the equation for Boltzmann sigmoidal concentration-response curves using the nonlin ear regression fitting model (GraphPad Prism Version 8). All assays were performed in triplicate in 3 repeated experiments. The obtained data are presented as means standard error of the means from 3 independent repeats (n = 3).
4.3.In vitro anticancer screening
The cell lines were purchased from the American Type Culture collection as follows:
Breast Cancer cell lines (MDA-MB-436) and WI38. Cytotoxic activity screening was performed using MTT assay. Exponentially, cells were placed in 10^4 cells/ well for 24 h, and then add fresh med ium containing different concen trations of the tested sample. Serial two-fold dilutions of the tested sample were added using a multichannel pipette. Moreover, all cells were cultivated at 37 °C, with 5% CO2 and 95% humidity. Also, incubation of control cells occurred at 3 7 ° C . […] Rinse the wells using water until no stain. After that, add 30% g lacial acetic acid to all wells with shaking plates on a Microplate reader (TECAN, Inc.) to measure the absorbance, using a test wavelength of 490 nm. Besides, compare the treated samples with the control cell. The cytotoxicity was estimated by IC50 in (μg /mL), the concentration that inhibits 50% of the growth of the examined cell.

Setting [4] is: mutant BRCA1 breast cancer cells, MTT.

Several values for one entry are separate records, joined by “and”; a condition that tells them apart may be missing. Equal values may be shown once. Read-outs that look alike come from different tables or passages of the source.

T1 sequence (P09874 whole entry): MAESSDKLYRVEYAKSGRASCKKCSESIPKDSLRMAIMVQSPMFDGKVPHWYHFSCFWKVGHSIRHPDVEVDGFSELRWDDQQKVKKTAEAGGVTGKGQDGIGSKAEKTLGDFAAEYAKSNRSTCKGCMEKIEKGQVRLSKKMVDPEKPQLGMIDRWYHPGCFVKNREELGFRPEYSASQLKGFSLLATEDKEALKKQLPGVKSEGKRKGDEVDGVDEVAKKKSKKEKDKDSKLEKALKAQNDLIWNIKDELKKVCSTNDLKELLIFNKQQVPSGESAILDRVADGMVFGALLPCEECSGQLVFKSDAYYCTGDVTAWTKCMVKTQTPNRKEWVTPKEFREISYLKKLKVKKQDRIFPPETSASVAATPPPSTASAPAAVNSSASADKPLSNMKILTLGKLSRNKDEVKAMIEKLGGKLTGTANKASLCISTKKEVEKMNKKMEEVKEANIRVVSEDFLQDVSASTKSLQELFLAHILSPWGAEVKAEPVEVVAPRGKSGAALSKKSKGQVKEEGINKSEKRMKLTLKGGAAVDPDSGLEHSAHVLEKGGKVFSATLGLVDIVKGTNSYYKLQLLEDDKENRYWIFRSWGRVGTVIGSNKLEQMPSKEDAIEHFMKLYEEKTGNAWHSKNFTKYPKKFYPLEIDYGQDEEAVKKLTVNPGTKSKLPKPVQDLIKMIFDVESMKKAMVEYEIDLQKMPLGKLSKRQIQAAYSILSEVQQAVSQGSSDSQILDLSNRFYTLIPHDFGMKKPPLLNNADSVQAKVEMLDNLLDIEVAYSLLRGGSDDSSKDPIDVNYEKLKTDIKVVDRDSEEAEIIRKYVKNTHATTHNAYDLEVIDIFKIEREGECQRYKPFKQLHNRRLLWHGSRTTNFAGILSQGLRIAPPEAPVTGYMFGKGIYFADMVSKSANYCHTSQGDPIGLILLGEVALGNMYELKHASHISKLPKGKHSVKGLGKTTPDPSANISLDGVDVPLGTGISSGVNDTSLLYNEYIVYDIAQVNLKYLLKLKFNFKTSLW

The term melting point denotes the temperature of the solid-liquid transition. A word on the IC50: it is the concentration at which inhibition is half-maximal. For `NNS(=O)(=O)c1ccc2[nH]c(=O)c(=O)[nH]c2c1` [Compound 3, 2,3-Dioxo-1,2,3,4-tetrahydroquinoxaline-6-sulfonohydrazide], the melting point was 285 to 287 °C. For the same compound, in series [1] (ratio of IC50 values), the “fold less PARP-1 inhibitory activity than reference drug Olaparib” value is listed as 3 fold. The IC50 in series [1] is 0.0129 ± 0.00473 µM.

On to `Cc1cc(O)n(S(=O)(=O)c2ccc3[nH]c(=O)c(=O)[nH]c3c2)n1` [Compound 4, 6-((5-Hydroxy-3-methyl-1H-pyrazol-1-yl)sulfonyl)-1,4-dihydroquinoxaline-2,3-dione], for which the “% viability MDA-MB-436” value in series [2] (log conc. 0.193 (1.6uM)) is given as 69.76%; in series [2] (log conc. 0.796 (6.3uM)) it was 60.12%; in series [2] (log conc. 1.398 (25uM)), 51.83%; in series [2] (log conc. 2 (100uM)), 42.01%; in series [2] (log conc. -0.409 (0.4uM)) it was 81.83%. For the same compound, the concentration for half-maximal inhibition (IC50) in series [2] (setting [4]) turned out to be 30.3 ± 1.78 µM; in series [1], 0.00873 ± 0.00044 µM. Besides, in series [1] (ratio of IC50 values), the “fold less PARP-1 inhibitory activity than reference drug Olaparib” value was roughly 2 fold.

Compound `O=C1CC(=O)N(S(=O)(=O)c2ccc3[nH]c(=O)c(=O)[nH]c3c2)N1` [Compound 6, 6-((3,5-Dioxopyrazolidin-1-yl)sulfonyl)-1,4-dihydroquinoxaline-2,3-dione] gave a melting point of 270 to 272 °C. For the same compound, in series [1] (ratio of IC50 values), the “fold less PARP-1 inhibitory activity than reference drug Olaparib” value was roughly 3 fold. Besides, the IC50 in series [1] was 0.0133 ± 0.00068 µM.

Regarding `O=C1CCC(=O)N1NS(=O)(=O)c1ccc2[nH]c(=O)c(=O)[nH]c2c1` [Compound 7a, N-(2,5-dioxopyrrolidin-1-yl)-2,3-dioxo-1,2,3,4-tetrahydroquinoxaline-6-sulfonamide], the melting point is 292 to 294 °C. Moreover, in series [1], the IC50 is 0.0571 ± 0.00291 µM.

`O=C1C=CC(=O)N1NS(=O)(=O)c1ccc2[nH]c(=O)c(=O)[nH]c2c1` [Compound 7b, N-(2,5-dioxo-2,5-dihydro-1H-pyrrol-1-yl)-2,3-dioxo-1,2,3,4-tetrahydroquinoxaline-6-sulfonamide] came in with a melting point of 295 to 297 °C. For the same compound, the IC50 in series [1] was 0.0358 ± 0.0018 µM.

On to `O=C1c2ccccc2C(=O)N1NS(=O)(=O)c1ccc2[nH]c(=O)c(=O)[nH]c2c1` [Compound 7c, N-(1,3-dioxoisoindolin-2-yl)-2,3-dioxo-1,2,3,4-tetrahydroquinoxaline-6-sulfonamide], for which the melting point was 207 to 209 °C. The IC50 in series [1] is 0.0434 ± 0.0001 µM.

`COc1ccc(NC(=S)NNS(=O)(=O)c2ccc3[nH]c(=O)c(=O)[nH]c3c2)cc1` [Compound 8a, 2-((2,3-Dioxo-1,2,3,4-tetrahydroquinoxalin-6-yl)sulfonyl)-N-(4-methoxyphenyl) Hydrazine-1-carbothioamide]: the IC50 in series [3] is 70.46 ± 0.43 µM; in series [2] (setting [4]) it was 10.7 ± 0.63 µM; in series [1], 0.00231 ± 0.0003 µM. Also, the SI in series [2] is 6.58. Also, the “% viability MDA-MB-436” value in series [2] (log conc. 0.193 (1.6uM)) is given as 61.23%; in series [2] (log conc. 0.796 (6.3uM)) it was 53.52%; in series [2] (log conc. 1.398 (25uM)), 43.91%; in series [2] (log conc. 2 (100uM)), 35.79%; in series [2] (log conc. -0.409 (0.4uM)), 73.41%. Also, the “fold higher PARP-1 inhibitory activity than Olaparib” value in series [1] (ratio of IC50 values) is given as roughly 2 fold.

`O=C(NC(=S)NNS(=O)(=O)c1ccc2[nH]c(=O)c(=O)[nH]c2c1)c1ccccc1` [Compound 8b, N-(2-((2,3-dioxo-1,2,3,4-tetrahydroquinoxalin-6-yl)sulfonyl)hydrazine-1-carbonothioyl)benzamide] had a melting point of 265 to 267 °C. The “fold less PARP-1 inhibitory activity than reference drug Olaparib” value in series [1] (ratio of IC50 values) came out at 2.5 fold. Moreover, in series [1], the IC50 is 0.0111 ± 0.00056 µM.

Take `COc1ccc(-n2c(=O)cc(O)n(NS(=O)(=O)c3ccc4[nH]c(=O)c(=O)[nH]c4c3)c2=S)cc1` [Compound 9a, N-(6-hydroxy-3-(4-methoxyphenyl)-4-oxo-2-thioxo-3,4-dihydropyrimidin-1(2H)-yl)-2,3-dioxo-1,2,3,4-tetrahydroquinoxaline-6-sulfonamide]: the melting point fell in the range of 205 to 207 °C. Besides, the IC50 in series [1] was determined as 0.0574 ± 0.0029 µM.

Take `O=C(c1ccccc1)n1c(=O)cc(O)n(NS(=O)(=O)c2ccc3[nH]c(=O)c(=O)[nH]c3c2)c1=S` [Compound 9b, N-(3-benzoyl-6-hydroxy-4-oxo-2-thioxo-3,4-dihydropyrimidin-1(2H)-yl)-2,3-dioxo-1,2,3,4-tetrahydroquinoxaline-6-sulfonamide]: the melting point lay within 270 to 272 °C. The IC50 in series [1] was determined as 0.0357 ± 0.00182 µM.

As for `COc1ccc(-n2c(C)csc2=NNS(=O)(=O)c2ccc3[nH]c(=O)c(=O)[nH]c3c2)cc1` [Compound 10a, N′-(3-(4-methoxyphenyl)-4-methylthiazol-2(3H)-ylidene)-2,3-dioxo-1,2,3,4-tetrahydroquinoxaline-6-sulfonohydrazide], the melting point fell in the range of 130 to 132 °C. Moreover, the IC50 in series [1] stood at 0.0216 ± 0.0011 µM.

Regarding `Cc1csc(=NNS(=O)(=O)c2ccc3[nH]c(=O)c(=O)[nH]c3c2)n1C(=O)c1ccccc1` [Compound 10b, N’-(3-benzoyl-4-methylthiazol-2(3H)-ylidene)-2,3-dioxo-1,2,3,4-tetrahydroquinoxaline-6-sulfonohydrazide], the IC50 in series [3] turned out to be 75.66 ± 0.51 µM; in series [2] (setting [4]) it was 9.62 ± 0.56 µM; in series [1], 0.00635 ± 0.00032 µM. Besides, the SI in series [2] turned out to be 7.86. The “% viability MDA-MB-436” value is 65.24% in series [2] (log conc. 0.193 (1.6uM)); 52.38% in series [2] (log conc. 0.796 (6.3uM)); 43.29% in series [2] (log conc. 1.398 (25uM)); 32.38% in series [2] (log conc. 2 (100uM)); 72.68% in series [2] (log conc. -0.409 (0.4uM)).

Consider `COc1ccc(-n2c(C)c(C(C)=O)sc2=NNS(=O)(=O)c2ccc3[nH]c(=O)c(=O)[nH]c3c2)cc1` [Compound 11a, N’-(5-acetyl-3-(4-methoxyphenyl)-4-methylthiazol-2(3H)-ylidene)-2,3-dioxo-1,2,3,4-tetrahydroquinoxaline-6-sulfonohydrazide], for which the melting point was 185 to 187 °C. Besides, the IC50 in series [1] turned out to be 0.0194 ± 0.00099 µM.

For `CC(=O)c1sc(=NNS(=O)(=O)c2ccc3[nH]c(=O)c(=O)[nH]c3c2)n(C(=O)c2ccccc2)c1C` [Compound 11b, N’-(5-acetyl-3-benzoyl-4-methylthiazol-2(3H)-ylidene)-2,3-dioxo-1,2,3,4-tetrahydro Quinoxaline-6-sulfonohydrazide], the IC50 was determined as 80.1 ± 0.82 µM in series [3], 11.5 ± 0.67 µM in series [2] (setting [4]) and 0.00825 ± 0.00042 µM in series [1]. For the same compound, in series [2], the SI is reported as 6.96. Besides, the “% viability MDA-MB-436” value is 62.03% in series [2] (log conc. 0.193 (1.6uM)); 55.11% in series [2] (log conc. 0.796 (6.3uM)); 44.77% in series [2] (log conc. 1.398 (25uM)); 35.26% in series [2] (log conc. 2 (100uM)); 73.47% in series [2] (log conc. -0.409 (0.4uM)).

`COc1ccc(N2C(=O)CSC2=NNS(=O)(=O)c2ccc3[nH]c(=O)c(=O)[nH]c3c2)cc1` [Compound 12a, N’-(3-(4-methoxyphenyl)-4-oxothiazolidin-2-ylidene)-2,3-dioxo-1,2,3,4-tetrahydro quinoxaline-6-sulfonohydrazide] yielded a melting point of 292 to 294 °C. For the same compound, the IC50 in series [1] was 0.0361 ± 0.00184 µM.

`O=C1CSC(=NNS(=O)(=O)c2ccc3[nH]c(=O)c(=O)[nH]c3c2)N1C(=O)c1ccccc1` [Compound 12b, N’-(3-benzoyl-4-oxothiazolidin-2-ylidene)-2,3-dioxo-1,2,3,4-tetrahydroquinoxaline-6-sulfonohydrazide] displayed a melting point of 290 to 292 °C. Besides, the IC50 in series [1] was found to be 0.0405 ± 0.00206 µM.

In the case of `O=C(c1cc(Cc2n[nH]c(=O)c3ccccc23)ccc1F)N1CCN(C(=O)C2CC2)CC1` [Olaparib, reference compound], in series [2], the IC50 is 8.9 µM and 8.63 µM.

The record behind these values is publication PMC9370283, “New Quinoxaline-Based Derivatives as PARP-1 Inhibitors: Design, Synthesis, Antiproliferative, and Computational Studies” (Molecules, 2022).
